15 molecules from ChEMBL document CHEMBL3882246, “Benzoxazole kinase inhibitors and methods of use” (2010) can be followed below.

The source made the active and inactive calls. The calls are words filed in the database; no cut-off is given here.

A short description of series [1]: Antiproliferative activity against human PC3 cells measured after 72 hrs by Alamar blue dye-based fluorescence analysis. In kind it is functional, cell-based, PC-3. The following applies: for EC50: Homo sapiens, PC-3, 72 h. On the technique in general: Alamar Blue is a resazurin reagent that responds to reducing activity.
Series [2] is described as follows: Antiproliferative activity against human MCF7-218 cells measured after 72 hrs by Alamar blue dye-based fluorescence analysis. It is filed as functional, cell-based.
The nature of series [3]: Antiproliferative activity against human 143B cells measured after 72 hrs by Alamar blue dye-based fluorescence analysis. It is filed as functional, cell-based.
Series [4] is described as follows: Antiproliferative activity against human HT1080 cells measured after 72 hrs by Alamar blue dye-based fluorescence analysis. In kind it is functional, cell-based. As to conditions: ht-1080.
Series [5] is described as follows: Antiproliferative activity against human SKHEP1 cells measured after 72 hrs by Alamar blue dye-based fluorescence analysis. It is filed as functional, cell-based. The following applies: sk-hep1.
Series [6] in a line: Antiproliferative activity against human MCF7-FL cells measured after 72 hrs by Alamar blue dye-based fluorescence analysis. In kind it is functional, cell-based.
The nature of series [7]: Antiproliferative activity against human BT474 cells measured after 72 hrs by Alamar blue dye-based fluorescence analysis. It is filed as functional, cell-based. As to conditions: bt-474.
Series [8] can be described thus: Antiproliferative activity against human 786-O cells measured after 72 hrs by Alamar blue dye-based fluorescence analysis. As to conditions: 786-0. It is filed as functional, cell-based.
Series [9] is described as follows: Antiproliferative activity against human HepG2 cells measured after 72 hrs by Alamar blue dye-based fluorescence analysis. It is filed as functional, cell-based.
The nature of series [10]: Antiproliferative activity against human MIAPaCa2 cells measured after 72 hrs by Alamar blue dye-based fluorescence analysis. In kind it is functional, cell-based. The following applies: mia paca-2.
Series [11] in a line: Antiproliferative activity against human HCT116 cells measured after 72 hrs by Alamar blue dye-based fluorescence analysis. In kind it is functional, cell-based. The following applies: hct-116.
Series [12] is described as follows: Antiproliferative activity against human BxPC3 cells measured after 72 hrs by Alamar blue dye-based fluorescence analysis. It is filed as functional, cell-based. As to conditions: bxpc-3.
Series [13] can be described thus: Antiproliferative activity against human COLO205 cells measured after 72 hrs by Alamar blue dye-based fluorescence analysis. In kind it is functional, cell-based. As to conditions: colo 205.
Series [14] can be described thus: Antiproliferative activity against human LNCAP cells measured after 72 hrs by Alamar blue dye-based fluorescence analysis. It is filed as functional, cell-based.
The target of series [15] is Serine/threonine-protein kinase mTOR (Homo sapiens) (UniProt P42345). Put plainly: Inhibition of mTOR in human U87 cells assessed as reduction in pAKT phosphorylation at residue […] by Western blot method. It is filed as cell-based. The following applies: U-87MG ATCC. (Immunoblotting shows a protein as a band on a membrane.)
The subject of series [16] is U-87MG ATCC. Put plainly: Antitumor activity against human U87 cells xenografted in mouse assessed as tumor growth inhibition at 0.3 to 3 mg/kg measured after 14 days. In kind it is functional, organism-based.
The target in series [17] is Ribosomal protein S6 kinase beta-1 (Homo sapiens) (UniProt P23443). In words: Inhibition of mTOR pS6K in human U87 cells assessed as inhibition of 4EBP1 phosphorylation by Western blot analysis. It is filed as cell-based. The following applies: U-87MG ATCC.
The target of series [18] is Serine/threonine-protein kinase mTOR (Homo sapiens) (UniProt P42345). Put plainly: Inhibition of mTOR in human U87 cells assessed as reduction in pRAS40 phosphorylation by Western blot method. In kind it is cell-based. As to conditions: U-87MG ATCC.
For series [19], the system named is U-87MG ATCC. Put plainly: Inhibition of mTORC1/2 in human U87 cells assessed as inhibition of Akt-phosphorylation at S473 residue by Western blot analysis. In kind it is cell-based.
Series [20] can be described thus: Toxicity in mouse xenografted with human U87 cells assessed as weight loss at 0.3 to 3 mg/kg measured after 14 days. It is filed as organism-based, U-87MG ATCC. The following applies: in vivo, 336 h. On the technique in general: Xenograft models place foreign cells or tissue in a host animal.
For series [21], the target named is Serine/threonine-protein kinase mTOR (Homo sapiens) (UniProt P42345). In words: Inhibition of mTOR in human U87 cells assessed as reduction in p4EBP1 phosphorylation by Western blot method. It is filed as cell-based. As to conditions: U-87MG ATCC.
The target of series [22] is Ribosomal protein S6 kinase beta-1 (Homo sapiens) (UniProt P23443). Put plainly: Inhibition of mTOR pS6K in human U87 cells assessed as inhibition of RAS40 phosphorylation by Western blot analysis. In kind it is cell-based. The following applies: U-87MG ATCC.

Ribosomal protein S6 kinase beta-1 (Homo sapiens), sequence (P23443 whole entry, looked up): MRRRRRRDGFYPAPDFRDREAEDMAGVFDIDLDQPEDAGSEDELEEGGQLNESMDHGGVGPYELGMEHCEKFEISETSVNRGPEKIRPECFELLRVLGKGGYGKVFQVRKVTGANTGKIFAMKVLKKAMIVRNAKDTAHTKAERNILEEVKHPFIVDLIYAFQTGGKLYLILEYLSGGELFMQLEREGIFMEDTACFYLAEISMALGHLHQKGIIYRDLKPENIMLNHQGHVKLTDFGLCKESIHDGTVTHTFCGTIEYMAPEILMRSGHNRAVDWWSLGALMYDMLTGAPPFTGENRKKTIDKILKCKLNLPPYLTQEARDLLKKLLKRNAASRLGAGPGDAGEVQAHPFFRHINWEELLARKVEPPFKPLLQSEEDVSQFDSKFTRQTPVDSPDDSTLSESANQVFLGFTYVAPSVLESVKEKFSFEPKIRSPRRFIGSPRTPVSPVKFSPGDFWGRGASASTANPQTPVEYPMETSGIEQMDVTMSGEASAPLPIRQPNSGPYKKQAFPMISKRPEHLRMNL

As usually defined, the EC50 is the concentration giving half of the maximal effect. Higher therefore signals lower potency in that assay. `CC(C)n1cc(-c2ccc3oc(N)nc3c2)c2c(N)ncnc21` gave an EC50 in series [1] of less than 0.1 µM.
The same measure, in the same setting: the figure for `CC(=O)Nc1nc2cc(-c3nn(C(C)C)c4ncnc(N)c34)ccc2o1` is less than 1 µM.
Still for that read-out and setting: the figure for `CC(=O)Nc1noc2cc(-c3nn(C(C)C)c4ncnc(N)c34)ccc12` is greater than 10 µM.
`CC(=O)N1CCC(n2nc(-c3ccc4oc(N)nc4c3)c3c(N)ncnc32)CC1`: in series [1], the EC50 was less than 10 µM.
In series [1], `CC(C)n1nc(-c2ccc3c(N)noc3c2)c2c(N)ncnc21` had an EC50 greater than 10 µM.
On the same count and under the same terms, the figure for `Nc1nc2cc(-c3nn(C4CCC(N5CCOCC5)CC4)c4ncnc(N)c34)ccc2o1` (configuration not stated) is less than 1 µM; for `CC(C)n1nc(-c2ccc3onc(N)c3c2)c2c(N)ncnc21` it is greater than 10 µM; for `Nc1nc2cc(-c3cn(C4CCOCC4)c4ncnc(N)c34)ccc2o1` it is less than 0.1 µM.
Same read-out and setting: the figure for `CC(C)n1nc(-c2ccc3nc(N)oc3c2)c2c(N)ncnc21` is less than 10 µM; for `Nc1nc2cc(-c3nn(C4CCOCC4)c4ncnc(N)c34)ccc2o1` it is less than 0.1 µM.
Consider `COc1cccc2c1C(=O)c1c(O)c3c(c(O)c1C2=O)C[C@@](O)(C(=O)CO)C[C@@H]3O[C@H]1C[C@H](N)[C@H](O)[C@H](C)O1` [DOXORUBICIN], for which the IC50 entry in series [2], in series [3], in series [4], in series [5], in [6] and in [7] was “Active” in each case.
Regarding `O=c1[nH]cc(F)c(=O)[nH]1` [FLUOROURACIL], the IC50 result in [8], in series [9], in [10], in series [11] and in series [12] was “Active” in each case.
With `CCc1c2c(nc3ccc(OC(=O)N4CCC(N5CCCCC5)CC4)cc13)-c1cc3c(c(=O)n1C2)COC(=O)[C@]3(O)CC` [IRINOTECAN], the IC50 entry in [13] and in [1] (pc-3) was “Active” each time.
Take `CC(=O)O[C@H]1C(=O)[C@@]2(C)[C@H]([C@H](OC(=O)c3ccccc3)[C@]3(O)C[C@H](OC(=O)[C@H](O)[C@@H](NC(=O)c4ccccc4)c4ccccc4)C(C)=C1C3(C)C)[C@]1(OC(C)=O)CO[C@@H]1C[C@@H]2O` [PACLITAXEL]: in series [14], the IC50 entry is recorded as “Active”.
On to `CC(C)n1nc(-c2ccc3oc(N)nc3c2)c2c(N)ncnc21` [SAPANISERTIB], for which the inhibition entry in [15], in series [17], in [18], in series [21] and in [22] was “Active” each time. The “growth inhibition (GI)” value with U-87MG ATCC [16] is “Active”. Moreover, in the series with U-87MG ATCC [19], the inhibition result is “Dose-dependent effect”. For the same molecule, in series [20], the Activity entry is given as “Non-Toxic”.
